Data as given in patent US10780090B2, “Heteroaryl compounds useful as inhibitors of SUMO activating enzyme” (Millennium Pharmaceuticals, Inc., priority 2014, dated 2020).

Target: recombinant human SAE enzyme (Homo sapiens (Human), UniProt Q9UBT2)
Experiment: SAE HTRF enzyme assay
Type: biochemical
Details: for Percent Inhibition: Concentration 0.111 μM; for IC50: class symbols A/B/C
Experimental: Example 215: SAE HTRF enzyme assay
The SAE enzymatic reaction totals 50 μl and contains 50 mM HEPES Hemisodium (pH 7.5), 0.05% BSA, 5 mM MgCl2, 0.5 μM ATP, 250 μM GSH, 0.01 μM Ubc9-GST, 0.125 μM Sumo-Flag and 0.11 nM recombinant human SAE enzyme. The enzymatic reaction mixture, with and without inhibitor, Is incubated at 24° C. for 105 min in a 384-well plate before termination with […] of Stop/Detection buffer (0.1M HEPES Hemisodium pH 7.5, 0.05% Tween20, 20 mM EDTA, 410 mM KF, 0.53 nM Europium-Cryptate labeled monoclonal anti-Flag M2 Antibody (CisBio International) and 8.125 μg/ml PHYCOLINK goat anti-GST allophycocyanin (XL-APC) antibody (Prozyme)). After incubation for 2 hours at 24° C., quantification of FRET is performed on the Pherostar™ (BMG Labtech). Percentage inhibition values at a single concentration or enzyme inhibition (IC50) values are determined from those curves. One skilled in the art will appreciate that the values generated either as percentage inhibition at a single concentration or IC50 values are subject to experimental variation.

recombinant human SAE enzyme, sequence (Q9UBT2 whole entry): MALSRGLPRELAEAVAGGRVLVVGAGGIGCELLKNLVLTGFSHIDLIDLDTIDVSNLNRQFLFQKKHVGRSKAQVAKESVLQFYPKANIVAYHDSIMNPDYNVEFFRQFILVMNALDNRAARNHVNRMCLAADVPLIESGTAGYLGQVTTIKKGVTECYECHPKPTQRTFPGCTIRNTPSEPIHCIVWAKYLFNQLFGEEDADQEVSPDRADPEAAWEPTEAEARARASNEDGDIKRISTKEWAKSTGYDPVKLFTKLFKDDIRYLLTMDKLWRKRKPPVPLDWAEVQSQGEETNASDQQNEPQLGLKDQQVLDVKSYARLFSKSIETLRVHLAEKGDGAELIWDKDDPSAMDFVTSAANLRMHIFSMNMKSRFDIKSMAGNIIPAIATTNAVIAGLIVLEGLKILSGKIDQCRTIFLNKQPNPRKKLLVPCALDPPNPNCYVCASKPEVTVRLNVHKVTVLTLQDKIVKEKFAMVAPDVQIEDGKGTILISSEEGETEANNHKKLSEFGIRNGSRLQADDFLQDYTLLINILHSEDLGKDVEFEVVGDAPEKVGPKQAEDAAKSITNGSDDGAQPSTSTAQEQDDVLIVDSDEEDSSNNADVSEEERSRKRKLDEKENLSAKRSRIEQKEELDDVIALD
recombinant human SAE enzyme, sequence (Q9UBE0 whole entry partner): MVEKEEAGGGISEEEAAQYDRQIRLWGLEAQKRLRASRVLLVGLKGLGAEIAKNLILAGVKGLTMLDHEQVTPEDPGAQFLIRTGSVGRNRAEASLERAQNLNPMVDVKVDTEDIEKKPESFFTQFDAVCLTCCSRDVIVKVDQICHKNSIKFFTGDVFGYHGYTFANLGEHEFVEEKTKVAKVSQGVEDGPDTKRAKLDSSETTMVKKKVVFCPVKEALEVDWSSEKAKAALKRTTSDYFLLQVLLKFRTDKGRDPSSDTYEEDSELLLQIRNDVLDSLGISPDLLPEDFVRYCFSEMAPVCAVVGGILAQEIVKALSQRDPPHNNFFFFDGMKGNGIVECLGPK

Compound | Percent Inhibition | IC50
C[C@](O)(c1csc(C(=O)c2cncnc2N[C@@H]2C[C@H](COS(N)(=O)=O)[C@@H](O)[C@H]2O)c1)c1cccc(Br)n1 (mixture of isomers) [I-1, [(1R,2R,3S,4R)-4-{[5-({4-[(1S)-1-(6-bromopyridin-2-yl)-1-hydroxyethyl]-2-thienyl}carbonyl)pyrimidin-4-yl]amino}-2,3-dihydroxycyclopentyl]methyl sulfamate and [(1R,2R,3S,4R)-4-({[5-({4-[(1R)-1-(6-bromopyridin-2-yl)-1-hydroxyethyl]-2-thienyl}carbonyl)pyrimidin-4-yl]amino}-2,3-dihydroxycyclopentyl]methyl sulfamate] | 99 | < 10 nM
C[C@@](O)(c1cccc(Br)c1)c1csc(C(=O)c2cncnc2N[C@@H]2C[C@H](COS(N)(=O)=O)[C@@H](O)C2)c1.C[C@](O)(c1cccc(Br)c1)c1csc(C(=O)c2cncnc2N[C@@H]2C[C@H](COS(N)(=O)=O)[C@@H](O)C2)c1 (mixture of isomers) [I-3, [(1R,2S,4R)-4-{[5-({4-[(1S)-1-(3-Bromophenyl)-1-hydroxyethyl]-2-thienyl}carbonyl)pyrimidin-4-yl]amino}-2-hydroxycyclopentyl]methyl sulfamate and [(1R,2S,4R)-4-{[5-({4-[(1R)-1-(3-Bromophenyl)-1-hydroxyethyl]-2-thienyl}carbonyl)pyrimidin-4-yl]amino}-2-hydroxycyclopentyl]methyl sulfamate] | 100 | < 10 nM
NS(=O)(=O)OC[C@H]1C[C@@H](Nc2ncncc2C(=O)c2cc([C@H](O)c3cccc(Cl)c3)cs2)C[C@@H]1O (mixture of isomers) [I-4, [(1R,2S,4R)-4-{[5-({4-[(R)-(3-chlorophenyl)(hydroxy)methyl]-2-thienyl}carbonyl)pyrimidin-4-yl]amino}-2-hydroxycyclopentyl]methyl sulfamate and [(1R,2S,4R)-4-{[5-({4-[(S)-(3-chlorophenyl)(hydroxy)methyl]-2-thienyl}carbonyl)pyrimidin-4-yl]amino}-2-hydroxycyclopentyl]methyl sulfamate] | 99 | < 10 nM
CC(O)(c1cccc(Cl)c1)c1csc(C(=O)c2cncnc2NC2CC(O)C(COS(N)(=O)=O)C2)c1 (mixture of isomers) [I-5, [(1R,2S,4R)-4-{[5-({4-[(1R)-1-(3-chlorophenyl)-1-hydroxyethyl]-2-thienyl}carbonyl)pyrimidin-4-yl]amino}-2-hydroxycyclopentyl]methyl sulfamate and [(1R,2S,4R)-4-{[5-({4-[(1S)-1-(3-chlorophenyl)-1-hydroxyethyl]-2-thienyl}carbonyl)pyrimidin-4-yl]amino}-2-hydroxycyclopentyl]methyl sulfamate] | 99 | < 10 nM
Cc1sc(C(=O)c2cncnc2NC2CC(O)C(COS(N)(=O)=O)C2)cc1C(N)c1cccc(Cl)c1 (mixture of isomers) [I-6, [(1R,2S,4R)-4-{[5-({4-[(R)-amino(3-chlorophenyl)methyl]-5-methyl-2-thienyl}carbonyl)pyrimidin-4-yl]amino}-2-hydroxycyclopentyl]methyl sulfamate and [(1R,2S,4R)-4-{[5-({4-[(S)-amino(3-chlorophenyl)methyl]-5-methyl-2-thienyl}carbonyl)pyrimidin-4-yl]amino}-2-hydroxycyclopentyl]methyl sulfamate] | 98 | < 10 nM
Cc1sc(C(=O)c2cncnc2NC2CC(O)C(COS(N)(=O)=O)C2)cc1C(O)c1cccc(Cl)c1 (mixture of isomers) [I-11, [(1R,2S,4R)-4-{[5-({4-[(R)-(3-chlorophenyl)(hydroxy)methyl]-5-methyl-2-thienyl}carbonyl)pyrimidin-4-yl]amino}-2-hydroxycyclopentyl]methyl sulfamate and [(1R,2S,4R)-4-{[5-({4-[(S)-(3-chlorophenyl)(hydroxy)methyl]-5-methyl-2-thienyl}carbonyl)pyrimidin-4-yl]amino}-2-hydroxycyclopentyl]methyl sulfamate] | 99 | < 10 nM
CC(N)(c1cccc(Cl)c1)c1csc(C(=O)c2cncnc2NC2CC(O)C(COS(N)(=O)=O)C2)c1 (mixture of isomers) [I-12, [(1R,2S,4R)-4-{[5-({4-[(1S)-1-amino-1-(3-chlorophenyl)ethyl]-2-thienyl}carbonyl)pyrimidin-4-yl]amino}-2-hydroxycyclopentyl]methyl sulfamate and [(1R,2S,4R)-4-{[5-({4-[(1R)-1-amino-1-(3-chlorophenyl)ethyl]-2-thienyl}carbonyl)pyrimidin-4-yl]amino}-2-hydroxycyclopentyl]methyl sulfamate] | 99 | < 10 nM
NS(=O)(=O)OCC1CC(Nc2ncncc2C(=O)c2cc(C(O)c3cccc(Cl)c3)c(CO)s2)CC1O (mixture of isomers) [I-13, [(1R,2S,4R)-4-{[5-({4-[(R)-(3-chlorophenyl)(hydroxy)methyl]-5-(hydroxymethyl)-2-thienyl}carbonyl)pyrimidin-4-yl]amino}-2-hydroxycyclopentyl]methyl sulfamate and [(1R,2S,4R)-4-{[5-({4-[(S)-(3-chlorophenyl)(hydroxy)methyl]-5-(hydroxymethyl)-2-thienyl}carbonyl)pyrimidin-4-yl]amino}-2-hydroxycyclopentyl]methyl sulfamate] | 100 | < 10 nM
NC(c1cccc(Cl)c1)c1cc(C(=O)c2cncnc2NC2CC(O)C(COS(N)(=O)=O)C2)sc1Cl (mixture of isomers) [I-15, [(1R,2S,4R)-4-{[5-({4-[(R)-amino(3-chlorophenyl)methyl]-5-chloro-2-thienyl}carbonyl)pyrimidin-4-yl]amino}-2-hydroxycyclopentyl]methyl sulfamate and [(1R,2S,4R)-4-{[5-({4-[(S)-amino(3-chlorophenyl)methyl]-5-chloro-2-thienyl}carbonyl)pyrimidin-4-yl]amino}-2-hydroxycyclopentyl]methyl sulfamate] | 100 | < 10 nM
NS(=O)(=O)OCC1CC(Nc2ncncc2C(=O)c2cc(C(O)c3cccc(Br)c3)cs2)CC1O (mixture of isomers) [I-17, [(1R,2S,4R)-4-{[5-({4-[(R)-(3-bromophenyl)(hydroxy)methyl]-2-thienyl}carbonyl)pyrimidin-4-yl]amino}-2-hydroxycyclopentyl]methyl sulfamate and [(1R,2S,4R)-4-{[5-({4-[(S)-(3-bromophenyl)(hydroxy)methyl]-2-thienyl}carbonyl)pyrimidin-4-yl]amino}-2-hydroxycyclopentyl]methyl sulfamate] | 99 | < 10 nM
NC(c1cccc(Br)n1)c1cc(C(=O)c2cncnc2NC2CC(O)C(COS(N)(=O)=O)C2)sc1Cl (mixture of isomers) [I-18, [(1R,2S,4R)-4-{[5-({4-[(R)-amino(6-bromopyridin-2-yl)methyl]-5-chloro-2-thienyl}carbonyl)pyrimidin-4-yl]amino}-2-hydroxycyclopentyl]methyl sulfamate and [(1R,2S,4R)-4-{[5-({4-[(S)-amino(6-bromopyridin-2-yl)methyl]-5-chloro-2-thienyl}carbonyl)pyrimidin-4-yl]amino}-2-hydroxycyclopentyl]methyl sulfamate] | 99 | < 10 nM
